In paper PMC6943437, “Coupling the Antimalarial Cell Penetrating Peptide TP10 to Classical Antimalarial Drugs Primaquine and Chloroquine Produces Strongly Hemolytic Conjugates” (Molecules, 2019) one finds IC50 data, which are given here for nine compounds.

*1 amine or outer side, *2 acyl side, *3 side chain or, on linkers, in order; H or OH if unused. Where a SMILES comes first, the peptide text is derived from it. The star is where a group is joined. NH(CH2)4NH(7-Cl-4-quinolyl) = Clc1ccc2c(NCCCCN*)ccnc2c1; Suc = O=C(CCC(=O)[*:2])[*:1] A value given as a limit tells only on which side of the number the result lay.

This test concerns P. falciparum W2. The format is cell-based. The note with it: P. falciparum W2 (CQ-resistant), 48 h, n = 3. The method, then: All conjugates and their respective parent CPP (Table 1), were screened in vitro for their antiplasmodial activity, using the CQ-resistant P. falciparum W2 strain. The primaquine analogue to 5a, i.e., conjugate 3 where the CPP is TP10, PQ-C4-TP10 (3a), was also included in the study for comparison.
Synchronized ring-stage P. falciparum parasites (W2 strain) were incubated with test compounds for 48 h in Roswell Park Memorial Institute (RPMI) 1640 medium containing 10% human serum or 0.5% Albumax serum substitute. Parasites were then fixed with 1% formaldehyde in phosphate-buffered saline (PBS), pH 7.4, for […] at RT and labeled with YOYO-1 (1 nM; molecular probes) in 0.1% Triton X-100 in PBS. Parasitemias were determined by flow cytometry, from dot plots (forward scatter versus fluorescence). For 50% inhibitory concentration (IC50) determinations, dose-response studies were performed, with the values normalized to percent control activity, and IC50s were calculated using GraphPad Prism, with data fitted by nonlinear regression.
In turn, `N=C(N)NCCC[C@H](NC(=O)CN)C(=O)N[C@@H](CCCCN)C(=O)N[C@@H](CCCCN)C(=O)N[C@@H](CCCNC(=N)N)C(=O)N[C@@H](CCCNC(=N)N)C(=O)N[C@@H](CCC(N)=O)C(=O)N[C@@H](CCCNC(=N)N)C(=O)N[C@@H](CCCNC(=N)N)C(=O)N[C@@H](CCCNC(=N)N)C(=O)N1CCC[C@H]1C(=O)N1CCC[C@H]1C(=O)N[C@@H](CCC(N)=O)C(N)=O` [TAT] showed an IC50 above 10 µM.
Next, `CC[C@H](C)[C@H](NC(=O)[C@H](CCCCN)NC(=O)[C@@H](NC(=O)[C@H](CCC(N)=O)NC(=O)[C@H](CCCNC(=N)N)NC(=O)CCC(=O)NCCCCNc1ccnc2cc(Cl)ccc12)[C@@H](C)CC)C(=O)N[C@@H](Cc1c[nH]c2ccccc12)C(=O)N[C@@H](Cc1ccccc1)C(=O)N[C@@H](CCC(N)=O)C(=O)N[C@@H](CC(N)=O)C(=O)N[C@@H](CCCNC(=N)N)C(=O)N[C@@H](CCCNC(=N)N)C(=O)N[C@@H](CCSC)C(=O)N[C@@H](CCCCN)C(=O)N[C@@H](Cc1c[nH]c2ccccc12)C(=O)N[C@@H](CCCCN)C(=O)N[C@@H](CCCCN)C(N)=O` [5i]: above 10 µM; H-FFLIPKGGRKKRRQRRRPPQ-NH2 [PasTAT]: above 10 µM; `CC[C@H](C)[C@H](NC(=O)[C@H](CCCCN)NC(=O)[C@H](CCCCN)NC(=O)[C@H](C)NC(=O)[C@H](CC(C)C)NC(=O)[C@H](C)NC(=O)[C@H](C)NC(=O)[C@H](CC(C)C)NC(=O)[C@H](C)NC(=O)[C@H](CCCCN)NC(=O)[C@H](CC(C)C)NC(=O)[C@H](CC(N)=O)NC(=O)[C@@H](NC(=O)[C@H](CCCCN)NC(=O)CNC(=O)[C@H](CC(C)C)NC(=O)[C@H](CC(C)C)NC(=O)[C@H](Cc1ccc(O)cc1)NC(=O)CNC(=O)[C@H](C)NC(=O)[C@H](CO)NC(=O)[C@H](CC(N)=O)NC(=O)[C@H](CC(C)C)NC(=O)[C@@H](NC(=O)[C@H](Cc1c[nH]c2ccccc12)NC(=O)CNC(=O)CCC(=O)NCCCCNc1ccnc2cc(Cl)ccc12)[C@@H](C)O)[C@@H](C)CC)C(=O)N[C@@H](CC(C)C)C(N)=O` [5b]: 5.2 µM.
Compound `CC[C@H](C)[C@H](NC(=O)[C@H](CC(C)C)NC(=O)[C@H](Cc1ccccc1)NC(=O)[C@H](Cc1ccccc1)NC(=O)CCC(=O)NCCCCNc1ccnc2cc(Cl)ccc12)C(=O)N1CCC[C@H]1C(=O)N[C@@H](CCCCN)C(=O)NCC(=O)NCC(=O)N[C@@H](CCCNC(=N)N)C(=O)N[C@@H](CCCCN)C(=O)N[C@@H](CCCCN)C(=O)N[C@@H](CCCNC(=N)N)C(=O)N[C@@H](CCCNC(=N)N)C(=O)N[C@@H](CCC(N)=O)C(=O)N[C@@H](CCCNC(=N)N)C(=O)N[C@@H](CCCNC(=N)N)C(=O)N[C@@H](CCCNC(=N)N)C(=O)N1CCC[C@H]1C(=O)N1CCC[C@H]1C(=O)N[C@@H](CCC(N)=O)C(N)=O` [5g] ({NH(CH2)4NH(7-Cl-4-quinolyl)-Suc}-FFLIPKGGRKKRRQRRRPPQ-NH2) displayed a half-inhibitory concentration (IC50) of 8.5 µM.
The result for H-VKKKKIKREIKI-NH2 [DPT-sh1] reads above 10 µM.
The result for `CC[C@H](C)[C@H](NC(=O)[C@H](CCCCN)NC(=O)[C@@H](NC(=O)[C@H](CCC(N)=O)NC(=O)[C@@H](N)CCCNC(=N)N)[C@@H](C)CC)C(=O)N[C@@H](Cc1c[nH]c2ccccc12)C(=O)N[C@@H](Cc1ccccc1)C(=O)N[C@@H](CCC(N)=O)C(=O)N[C@@H](CC(N)=O)C(=O)N[C@@H](CCCNC(=N)N)C(=O)N[C@@H](CCCNC(=N)N)C(=O)N[C@@H](CCSC)C(=O)N[C@@H](CCCCN)C(=O)N[C@@H](Cc1c[nH]c2ccccc12)C(=O)N[C@@H](CCCCN)C(=O)N[C@@H](CCCCN)C(N)=O` [Penetratin] reads above 10 µM; that for `N=C(N)NCCC[C@H](NC(=O)CNC(=O)CCC(=O)NCCCCNc1ccnc2cc(Cl)ccc12)C(=O)N[C@@H](CCCCN)C(=O)N[C@@H](CCCCN)C(=O)N[C@@H](CCCNC(=N)N)C(=O)N[C@@H](CCCNC(=N)N)C(=O)N[C@@H](CCC(N)=O)C(=O)N[C@@H](CCCNC(=N)N)C(=O)N[C@@H](CCCNC(=N)N)C(=O)N[C@@H](CCCNC(=N)N)C(=O)N1CCC[C@H]1C(=O)N1CCC[C@H]1C(=O)N[C@@H](CCC(N)=O)C(N)=O` [5f], above 10 µM.
Next, H-RQKRLIRQKRLIRQKRLI-NH2 [DPT-sh2]: above 10 µM.

The term IC50 denotes the concentration that gives 50% inhibition. Low values mean inhibition by little substance, high ones a need for much substance.
